The kinase profiling compilation of Christmann-Franck et al. (2016)

How the values were obtained:
Assay in all cases: radiometric filter-binding kinase assay
[1] = tested on: AKT2 (human), P31751 [S474D]; conditions: compound 100.0 µM; ATP 50 µM
CDK2 CCNA2 (human) = CDK2 CCNA2 (human) (UniProt P20248+P24941); conditions: compound 100.0 µM; ATP 20 µM
CHEK1 (human) = CHEK1 (human) (UniProt O14757); conditions: compound 100.0 µM; ATP 20 µM
CHEK2 (human) = CHEK2 (human) (UniProt O96017); conditions: compound 100.0 µM; ATP 20 µM
DYRK1A (human) = DYRK1A (human) (UniProt Q13627); conditions: compound 100.0 µM; ATP 50 µM
EPHB2 (human) = EPHB2 (human) (UniProt P29323); conditions: compound 100.0 µM; ATP 20 µM
EPHB4 (human) = EPHB4 (human) (UniProt P54760); conditions: compound 100.0 µM; ATP 5 µM
FLT1 (human) = FLT1 (human) (UniProt P17948); conditions: compound 100.0 µM; ATP 20 µM
HIPK1 (human) = HIPK1 (human) (UniProt Q86Z02); conditions: compound 100.0 µM; ATP 20 µM
HIPK3 (human) = HIPK3 (human) (UniProt Q9H422); conditions: compound 100.0 µM; ATP 20 µM
IGF1R (human) = IGF1R (human) (UniProt P08069); conditions: compound 100.0 µM; ATP 5 µM
INSRR (human) = INSRR (human) (UniProt P14616); conditions: compound 100.0 µM; ATP 5 µM
JAK2 JH1 JH2 (human) = JAK2 JH1 JH2 (human) (UniProt O60674); conditions: compound 100.0 µM; ATP 5 µM
MAP2K2 (human) = MAP2K2 (human) (UniProt P36507); conditions: compound 100.0 µM; ATP 5 µM
MAP2K6 (human) = MAP2K6 (human) (UniProt P52564); conditions: compound 100.0 µM; ATP 50 µM
MAP3K1 (human) = MAP3K1 (human) (UniProt Q13233); conditions: compound 100.0 µM; ATP 50 µM
MAP3K7 TAB1 (human) = MAP3K7 TAB1 (human) (UniProt Q15750+O43318); conditions: compound 100.0 µM; ATP 5 µM
MAPK10 (human) = MAPK10 (human) (UniProt P53779); conditions: compound 100.0 µM; ATP 20 µM
MAPK11 (human) = MAPK11 (human) (UniProt Q15759); conditions: compound 100.0 µM; ATP 20 µM
MAPK15 (human) = MAPK15 (human) (UniProt Q8TD08); conditions: compound 100.0 µM; ATP 5 µM
MAPKAPK3 (human) = MAPKAPK3 (human) (UniProt Q16644); conditions: compound 100.0 µM; ATP 20 µM
MARK4 (human) = MARK4 (human) (UniProt Q96L34); conditions: compound 100.0 µM; ATP 50 µM
NEK2 (human) = NEK2 (human) (UniProt P51955); conditions: compound 100.0 µM; ATP 50 µM
NTRK1 (human) = NTRK1 (human) (UniProt P04629); conditions: compound 100.0 µM; ATP 20 µM
PIM2 (human) = PIM2 (human) (UniProt Q9P1W9); conditions: compound 100.0 µM; ATP 5 µM
PIM3 (human) = PIM3 (human) (UniProt Q86V86); conditions: compound 100.0 µM; ATP 20 µM
PKN2 (human) = PKN2 (human) (UniProt Q16513); conditions: compound 100.0 µM; ATP 5 µM
PLK1 (human) = PLK1 (human) (UniProt P53350); conditions: compound 100.0 µM; ATP 5 µM
[2] = biological target: PRKAA1 PRKAB2 PRKAG1 (human) (UniProt O43741+Q13131+P54619); conditions: compound 100.0 µM; ATP 20 µM
PRKCG (human) = PRKCG (human) (UniProt P05129); conditions: compound 100.0 µM; ATP 20 µM
PRKCZ (human) = PRKCZ (human) (UniProt Q05513); conditions: compound 100.0 µM; ATP 5 µM
RIPK2 (human) = RIPK2 (human) (UniProt O43353); conditions: compound 100.0 µM; ATP 20 µM
ROCK2 (rat) = conditions: compound 100.0 µM; ATP 20 µM; accession and sequence are those of the human protein
RPS6KA1 KD1 KD2 (human) = RPS6KA1 KD1 KD2 (human) (UniProt Q15418); conditions: compound 100.0 µM; ATP 50 µM
[3] = tested on: RPS6KB1 (human), P23443 [T412E]; conditions: compound 100.0 µM; ATP 20 µM
[4] = biological target: STK11 CAB39 STRADA (human) (UniProt Q9Y376+Q7RTN6+Q15831); conditions: compound 100.0 µM; ATP 20 µM
STK3 (human) = STK3 (human) (UniProt Q13188); conditions: compound 100.0 µM; ATP 20 µM
TBK1 (human) = TBK1 (human) (UniProt Q9UHD2); conditions: compound 100.0 µM; ATP 50 µM
TTK (human) = TTK (human) (UniProt P33981); conditions: compound 100.0 µM; ATP 20 µM

Sequence of STK11 CAB39 STRADA (human) (Q15831 whole entry, looked up): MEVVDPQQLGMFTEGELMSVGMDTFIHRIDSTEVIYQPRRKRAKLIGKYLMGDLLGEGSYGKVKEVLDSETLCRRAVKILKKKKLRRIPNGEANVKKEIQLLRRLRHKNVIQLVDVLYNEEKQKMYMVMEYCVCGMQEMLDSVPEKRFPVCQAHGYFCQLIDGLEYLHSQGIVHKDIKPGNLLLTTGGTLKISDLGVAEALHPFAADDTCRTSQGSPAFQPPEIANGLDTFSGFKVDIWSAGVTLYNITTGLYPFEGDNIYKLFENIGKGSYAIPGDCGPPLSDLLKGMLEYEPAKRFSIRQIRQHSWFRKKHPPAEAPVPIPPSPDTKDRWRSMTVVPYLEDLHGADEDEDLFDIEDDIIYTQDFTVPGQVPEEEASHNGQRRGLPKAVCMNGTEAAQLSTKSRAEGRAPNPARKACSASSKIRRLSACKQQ
Sequence of STK11 CAB39 STRADA (human) (Q7RTN6 whole entry, looked up): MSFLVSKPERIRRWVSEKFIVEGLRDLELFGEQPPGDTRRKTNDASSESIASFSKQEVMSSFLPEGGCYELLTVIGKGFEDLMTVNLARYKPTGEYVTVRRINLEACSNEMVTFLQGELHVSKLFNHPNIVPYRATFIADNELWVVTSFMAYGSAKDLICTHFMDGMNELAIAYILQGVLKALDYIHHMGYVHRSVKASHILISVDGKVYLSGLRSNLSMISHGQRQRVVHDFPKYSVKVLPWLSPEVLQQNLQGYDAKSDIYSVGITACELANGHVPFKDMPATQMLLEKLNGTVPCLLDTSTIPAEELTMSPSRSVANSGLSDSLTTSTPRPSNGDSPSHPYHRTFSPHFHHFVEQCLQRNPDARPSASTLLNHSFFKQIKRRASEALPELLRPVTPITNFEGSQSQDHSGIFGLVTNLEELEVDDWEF
Sequence of STK11 CAB39 STRADA (human) (Q9Y376 whole entry, looked up): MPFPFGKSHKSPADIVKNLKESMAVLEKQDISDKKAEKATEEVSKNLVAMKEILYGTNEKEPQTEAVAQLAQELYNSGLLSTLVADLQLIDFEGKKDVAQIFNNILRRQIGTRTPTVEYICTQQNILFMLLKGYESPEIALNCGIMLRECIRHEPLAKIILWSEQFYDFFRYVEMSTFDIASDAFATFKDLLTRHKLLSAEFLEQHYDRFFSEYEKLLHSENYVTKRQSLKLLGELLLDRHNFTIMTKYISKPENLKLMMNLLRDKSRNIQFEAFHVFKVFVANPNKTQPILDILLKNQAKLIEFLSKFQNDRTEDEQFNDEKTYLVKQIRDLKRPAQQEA
Sequence of EPHB2 (human) (P29323 whole entry, looked up): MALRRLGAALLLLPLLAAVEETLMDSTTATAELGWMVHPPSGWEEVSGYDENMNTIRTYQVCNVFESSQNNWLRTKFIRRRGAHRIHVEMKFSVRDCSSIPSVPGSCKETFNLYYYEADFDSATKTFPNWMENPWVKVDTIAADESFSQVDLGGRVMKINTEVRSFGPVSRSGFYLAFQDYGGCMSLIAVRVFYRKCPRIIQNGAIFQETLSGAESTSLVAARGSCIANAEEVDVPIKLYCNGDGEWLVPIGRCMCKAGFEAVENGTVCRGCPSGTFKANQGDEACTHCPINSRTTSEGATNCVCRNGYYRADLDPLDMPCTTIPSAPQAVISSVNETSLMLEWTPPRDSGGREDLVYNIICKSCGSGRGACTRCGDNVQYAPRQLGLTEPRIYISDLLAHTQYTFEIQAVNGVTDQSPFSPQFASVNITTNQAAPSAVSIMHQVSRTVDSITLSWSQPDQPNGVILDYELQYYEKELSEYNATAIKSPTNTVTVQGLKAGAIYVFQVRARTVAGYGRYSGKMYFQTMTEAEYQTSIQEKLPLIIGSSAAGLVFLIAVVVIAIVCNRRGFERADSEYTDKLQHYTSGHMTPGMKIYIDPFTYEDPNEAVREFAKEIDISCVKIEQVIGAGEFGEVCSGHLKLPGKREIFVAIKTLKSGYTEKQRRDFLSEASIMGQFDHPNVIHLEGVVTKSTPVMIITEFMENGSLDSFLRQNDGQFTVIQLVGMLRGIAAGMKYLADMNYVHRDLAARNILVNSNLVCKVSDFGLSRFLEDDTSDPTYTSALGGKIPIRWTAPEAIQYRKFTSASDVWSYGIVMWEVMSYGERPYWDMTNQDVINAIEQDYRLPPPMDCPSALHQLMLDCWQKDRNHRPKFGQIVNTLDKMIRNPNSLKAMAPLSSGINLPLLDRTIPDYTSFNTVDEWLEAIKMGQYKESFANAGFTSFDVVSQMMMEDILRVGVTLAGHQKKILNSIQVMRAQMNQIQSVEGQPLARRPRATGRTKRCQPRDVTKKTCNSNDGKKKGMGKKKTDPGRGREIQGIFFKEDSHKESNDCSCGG
Sequence of EPHB4 (human) (P54760 whole entry, looked up): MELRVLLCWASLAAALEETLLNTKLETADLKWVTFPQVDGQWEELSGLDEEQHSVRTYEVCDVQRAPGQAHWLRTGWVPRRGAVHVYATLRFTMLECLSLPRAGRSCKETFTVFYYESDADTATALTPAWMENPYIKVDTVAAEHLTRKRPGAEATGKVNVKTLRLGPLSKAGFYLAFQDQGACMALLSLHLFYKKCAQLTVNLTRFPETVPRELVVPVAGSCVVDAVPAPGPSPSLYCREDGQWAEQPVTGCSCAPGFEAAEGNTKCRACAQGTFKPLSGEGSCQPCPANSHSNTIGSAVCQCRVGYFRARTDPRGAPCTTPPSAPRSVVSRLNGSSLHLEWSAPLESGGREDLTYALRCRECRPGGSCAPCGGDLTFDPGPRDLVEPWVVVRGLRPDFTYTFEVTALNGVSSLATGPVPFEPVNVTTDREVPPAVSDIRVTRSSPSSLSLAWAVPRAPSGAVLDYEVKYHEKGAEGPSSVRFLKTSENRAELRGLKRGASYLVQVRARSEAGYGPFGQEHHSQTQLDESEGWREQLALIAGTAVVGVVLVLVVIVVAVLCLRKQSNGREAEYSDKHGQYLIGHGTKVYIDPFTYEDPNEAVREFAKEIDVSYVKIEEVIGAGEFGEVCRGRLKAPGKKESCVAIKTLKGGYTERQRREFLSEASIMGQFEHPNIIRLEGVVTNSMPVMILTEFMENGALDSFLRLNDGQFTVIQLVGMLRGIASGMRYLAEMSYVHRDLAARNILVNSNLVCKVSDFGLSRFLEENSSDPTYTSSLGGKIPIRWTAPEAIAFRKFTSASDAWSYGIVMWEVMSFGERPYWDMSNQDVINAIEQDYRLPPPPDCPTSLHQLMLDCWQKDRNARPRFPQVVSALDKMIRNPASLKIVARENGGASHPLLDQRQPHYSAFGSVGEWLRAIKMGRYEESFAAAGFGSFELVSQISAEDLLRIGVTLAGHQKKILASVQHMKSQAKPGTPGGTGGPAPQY
Sequence of PIM2 (human) (Q9P1W9 whole entry, looked up): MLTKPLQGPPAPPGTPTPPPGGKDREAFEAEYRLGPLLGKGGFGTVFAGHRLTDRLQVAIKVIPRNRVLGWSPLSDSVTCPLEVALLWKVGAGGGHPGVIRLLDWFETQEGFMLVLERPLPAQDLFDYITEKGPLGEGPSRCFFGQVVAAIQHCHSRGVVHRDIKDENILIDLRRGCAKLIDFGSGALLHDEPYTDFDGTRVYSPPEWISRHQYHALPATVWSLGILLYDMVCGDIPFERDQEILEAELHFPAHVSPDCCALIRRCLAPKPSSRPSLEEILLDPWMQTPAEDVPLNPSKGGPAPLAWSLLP
Sequence of CHEK1 (human) (O14757 whole entry, looked up): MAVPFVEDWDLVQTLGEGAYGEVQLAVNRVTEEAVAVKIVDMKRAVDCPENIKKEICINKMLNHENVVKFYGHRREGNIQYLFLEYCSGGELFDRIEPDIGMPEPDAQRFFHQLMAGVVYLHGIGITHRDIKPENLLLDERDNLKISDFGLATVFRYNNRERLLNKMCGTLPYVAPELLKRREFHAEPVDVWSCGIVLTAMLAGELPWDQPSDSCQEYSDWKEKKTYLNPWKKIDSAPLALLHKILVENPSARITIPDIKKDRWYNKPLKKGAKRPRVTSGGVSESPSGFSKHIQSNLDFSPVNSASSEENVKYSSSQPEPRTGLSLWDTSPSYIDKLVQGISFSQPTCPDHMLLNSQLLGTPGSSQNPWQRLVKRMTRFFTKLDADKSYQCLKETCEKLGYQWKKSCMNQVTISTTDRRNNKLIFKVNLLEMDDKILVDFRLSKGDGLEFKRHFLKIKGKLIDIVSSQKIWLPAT

SMILES	inhibition [1] [%]	inhibition (CDK2 CCNA2 (human)) [%]	inhibition (CHEK1 (human)) [%]	inhibition (CHEK2 (human)) [%]	inhibition (DYRK1A (human)) [%]	inhibition (EPHB2 (human)) [%]	inhibition (EPHB4 (human)) [%]	inhibition (FLT1 (human)) [%]	inhibition (HIPK1 (human)) [%]	inhibition (HIPK3 (human)) [%]	inhibition (IGF1R (human)) [%]	inhibition (INSRR (human)) [%]	inhibition (JAK2 JH1 JH2 (human)) [%]	inhibition (MAP2K2 (human)) [%]	inhibition (MAP2K6 (human)) [%]	inhibition (MAP3K1 (human)) [%]	inhibition (MAP3K7 TAB1 (human)) [%]	inhibition (MAPK10 (human)) [%]	inhibition (MAPK11 (human)) [%]	inhibition (MAPK15 (human)) [%]	other results
Cc1cccc(C)c1-c1cn2nc(N)nc2cn1	37	17	9	13	19	0	14	22	16	7	5	24	16	28	8	17	3	17	20	25	inhibition (MAPKAPK3 (human)): 33%; inhibition (MARK4 (human)): 24%; inhibition (NEK2 (human)): 38%; inhibition (NTRK1 (human)): 8%; inhibition (PIM2 (human)): 2%; inhibition (PIM3 (human)): 26%; inhibition (PKN2 (human)): 93%; inhibition (PLK1 (human)): 8%; inhibition [2]: 12%; inhibition (PRKCG (human)): 6%; inhibition (PRKCZ (human)): 6%; inhibition (RIPK2 (human)): 43%; inhibition (ROCK2 (rat)): 19%; inhibition (RPS6KA1 KD1 KD2 (human)): 21%; inhibition [3]: 8%; inhibition [4]: 0%; inhibition (STK3 (human)): 9%; inhibition (TBK1 (human)): 21%; inhibition (TTK (human)): 20%
CC(=O)Nc1nc2cnc(-c3c(C)cccc3C)cn2n1	43	0	0	0	0	0	27	9	0	0	0	0	9	0	0	0	0	0	0	7	inhibition (MAPKAPK3 (human)): 74%; inhibition (MARK4 (human)): 17%; inhibition (NEK2 (human)): 0%; inhibition (NTRK1 (human)): 0%; inhibition (PIM2 (human)): 5%; inhibition (PIM3 (human)): 1%; inhibition (PKN2 (human)): 0%; inhibition (PLK1 (human)): 0%; inhibition [2]: 0%; inhibition (PRKCG (human)): 12%; inhibition (PRKCZ (human)): 0%; inhibition (RIPK2 (human)): 5%; inhibition (ROCK2 (rat)): 0%; inhibition (RPS6KA1 KD1 KD2 (human)): 0%; inhibition [3]: 0%; inhibition [4]: 0%; inhibition (STK3 (human)): 0%; inhibition (TBK1 (human)): 15%; inhibition (TTK (human)): 0%
O=c1c(NC(=S)NCc2ccccc2)cnc2[nH]ccn12	31	0	0	20	5	3	9	28	0	0	0	0	0	0	0	0	20	0	7	3	inhibition (MAPKAPK3 (human)): 21%; inhibition (MARK4 (human)): 21%; inhibition (NEK2 (human)): 4%; inhibition (NTRK1 (human)): 0%; inhibition (PIM2 (human)): 4%; inhibition (PIM3 (human)): 0%; inhibition (PKN2 (human)): 0%; inhibition (PLK1 (human)): 0%; inhibition [2]: 0%; inhibition (PRKCG (human)): 0%; inhibition (PRKCZ (human)): 0%; inhibition (RIPK2 (human)): 0%; inhibition (ROCK2 (rat)): 13%; inhibition (RPS6KA1 KD1 KD2 (human)): 17%; inhibition [3]: 9%; inhibition [4]: 0%; inhibition (STK3 (human)): 3%; inhibition (TBK1 (human)): 0%; inhibition (TTK (human)): 0%
O=c1cc(-c2ccccc2F)nc2[nH]ccn12	16	21	4	19	31	0	6	39	30	0	28	6	25	18	0	53	37	0	23	18	inhibition (MAPKAPK3 (human)): 15%; inhibition (MARK4 (human)): 0%; inhibition (NEK2 (human)): 29%; inhibition (NTRK1 (human)): 50%; inhibition (PIM2 (human)): 17%; inhibition (PIM3 (human)): 83%; inhibition (PKN2 (human)): 2%; inhibition (PLK1 (human)): 8%; inhibition [2]: 0%; inhibition (PRKCG (human)): 7%; inhibition (PRKCZ (human)): 0%; inhibition (RIPK2 (human)): 57%; inhibition (ROCK2 (rat)): 29%; inhibition (RPS6KA1 KD1 KD2 (human)): 16%; inhibition [3]: 8%; inhibition [4]: 6%; inhibition (STK3 (human)): 27%; inhibition (TBK1 (human)): 6%; inhibition (TTK (human)): 11%
CC1CN(c2nc3ccccn3c(=O)c2N)CC(C)O1 (stereo not given)	24	8	0	0	36	20	12	54	0	0	0	1	35	0	1	0	0	9	0	0	inhibition (MAPKAPK3 (human)): 70%; inhibition (MARK4 (human)): 56%; inhibition (NEK2 (human)): 0%; inhibition (NTRK1 (human)): 37%; inhibition (PIM2 (human)): 19%; inhibition (PIM3 (human)): 1%; inhibition (PKN2 (human)): 0%; inhibition (PLK1 (human)): 0%; inhibition [2]: 2%; inhibition (PRKCG (human)): 0%; inhibition (PRKCZ (human)): 0%; inhibition (RIPK2 (human)): 28%; inhibition (ROCK2 (rat)): 17%; inhibition (RPS6KA1 KD1 KD2 (human)): 0%; inhibition [3]: 0%; inhibition [4]: 0%; inhibition (STK3 (human)): 0%; inhibition (TBK1 (human)): 0%; inhibition (TTK (human)): 3%
